Data taken from patent publication US12522597B2, “Methods and compositions for modulating splicing” (Skyhawk Therapeutics, Inc., priority 2019, dated 2026).
Read-outs that look alike come from different tables or passages of the source.

How the values were obtained:
mHTT protein = mHTT protein assay (2B7-MW1, Mesoscale Discovery); assay type: cell-based, human; settings: GM04724 (CAG 70/20) Huntington's disease patient lymphoblast cells, 48 hours, 2B7-MW1 MSD; read-out: HTT Potency - Protein EC50 mHTT (average)
How it was run: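 GM04724 Huntington's patient lymphoblasts (CAG 70/20) were treated for 48 h at 10 μM to 0.6 nM. mHTT was quantified by 2B7-MW1 MSD immunoassay, whose signal depends on polyQ expansion and HTT fragment size. Viability was run on a parallel plate by CellTiter-Glo.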

[1] = test system: Huntingtin (HTT) transcripts; assay: Quantitative splicing assay (HTT), qPCR; assay type: cell-based; settings: Homo sapiens, GM04724 (CAG 70/20) Huntington's disease patient lymphoblasts, 24 h
Description: GM04724 (CAG 70/20) Huntington's disease patient lymphoblasts (Coriell) are plated in 96-wel v-bottom plates at 50,000 cells/well. Immediately after plating, cells are dosed with compound for 24 h at concentrations ranging from 2.5 uM to 0.15 nM (0.1% DMSO). Treated cells are lysed and cDNA synthesized using the Fast Advanced Cells-to-Ct kit (Thermofisher A35378) according to the manufacturer's instructions. 2 uL of each cDNA are used in qPCR reactions to confirm the compound-induced inclusion of a cryptic exon within intron 49 of the Huntingtin (HTT) transcripts. The qPCR reactions are prepared in 384-well plates in 10 uL volume, using TaqMan™ Fast Advanced Master Mix [ThermoFisher; 4444965] with primers and probes shown in the table below. Reactions are run in a Quant Studio 6 qPCR instrument with default settings.

[2] = test system: MDR1-MDCK cell monolayers; assay: MDCK-MDR1 permeability assay (BBB penetration potential); assay type: in vitro ADME; settings: dog, MDCK-MDR1, 120 min, 5 μM, pH 7.4
Description: (§1) Each determination is performed in duplicate. […] Analytical conditions are outlined below.

MDR1 = assay: as above; assay type: in vitro ADME; settings: dog; for efflux ratio at 120 min, 5 μM: MDCK-MDR1, pH 7.4, MDCK-MDR1: Efflux; for Papp A→B at 120 min, 5 μM: MDCK-MDR1, pH 7.4, MDCK-MDR1: Papp A-B; for Papp B→A at 120 min, 5 μM: MDCK-MDR1, pH 7.4, MDCK-MDR1: Papp B-A
Description: as §1

[3] = qPCR HTTex49_50, read-out: HTT Potency - Splicing: E49-50 EC50 (average)
[4] = qPCR cryptic exon 49b inclusion, read-out: HTT Potency - Splicing: E49b EC50 (average)

Row | SMILES | EC50 (mHTT protein) | EC50 [1, 3] | EC50 [1, 4] | MDCK-MDR1: % Recov A-B [2] | MDCK-MDR1: % Recov B-A [2] | efflux ratio at 120 min, 5 μM (MDR1) | Papp A→B at 120 min, 5 μM (MDR1) | Papp B→A at 120 min, 5 μM (MDR1)
1 | Oc1cc(-n2ccc(F)n2)ccc1-c1ccc(O[C@@H]2C[C@H]3CCC[C@H](N3)[C@@H]2F)nn1 (single isomer, unassigned) [115-ENT1] | 16 to 50 nM | 0.01 to 15 nM | 0.01 to 15 nM | 44% | 70% | 3 | 7.15 ×10⁻⁶ cm/s | 20.3 ×10⁻⁶ cm/s
2 | C[C@]12CC[C@](C)(N1)[C@H](F)[C@H](Oc1ccc(-c3ccc(-c4cn[nH]c4)cc3O)nn1)C2 (single isomer, unassigned) [2-ENT1] | 0.01 to 15 nM | 0.01 to 15 nM | 0.01 to 15 nM | 77% | 89% | 12 | 4.15 ×10⁻⁶ cm/s | 50.7 ×10⁻⁶ cm/s
3 | Cn1cc(-c2cc(O)c(-c3ccc(O[C@@H]4C[C@H]5CCC[C@H](N5)[C@@H]4F)nn3)cn2)cn1 (single isomer, unassigned) [64-ENT1] | 501 to 10000 nM | 501 to 10000 nM | 501 to 10000 nM | 99% | 101% | 68 | 0.18 ×10⁻⁶ cm/s | 12.4 ×10⁻⁶ cm/s
4 | Cn1cc(-c2cc(O)c(-c3ccc(O[C@@H]4C[C@H]5CCC[C@H](N5)[C@@H]4F)nn3)cc2Cl)cn1 (single isomer, unassigned) [120-ENT1] | 16 to 50 nM | 16 to 50 nM | 16 to 50 nM | 29% | 77% | 8 | 3.51 ×10⁻⁶ cm/s | 29.7 ×10⁻⁶ cm/s
5 | Cn1cc(-c2ccc(-c3ccc(O[C@@H]4C[C@@]5(C)CCC[C@](C)(N5)[C@@H]4F)nn3)c(O)c2)cn1 (single isomer, unassigned) [154-ENT2] | 16 to 50 nM | 16 to 50 nM | 0.01 to 15 nM | 81% | 92% | 3 | 6.92 ×10⁻⁶ cm/s | 22 ×10⁻⁶ cm/s
6 | Cn1cc(-c2cc(O)c(-c3ccc(O[C@H]4C[C@@H]5CCC[C@@H](N5)[C@H]4F)nn3)cn2)cn1 (single isomer, unassigned) [64-ENT2] | 501 to 10000 nM | 501 to 10000 nM | 501 to 10000 nM | 92% | 97% | 50 | 0.21 ×10⁻⁶ cm/s | 10.7 ×10⁻⁶ cm/s
7 | Cc1cc(-c2ccc(-c3ccc(O[C@@H]4C[C@H]5CCC[C@H](N5)[C@@H]4F)nn3)c(O)c2)cnn1 (single isomer, unassigned) [90-ENT1] | 101 to 500 nM | – | – | 103% | 99% | 33 | 1.82 ×10⁻⁶ cm/s | 60.5 ×10⁻⁶ cm/s
8 | Cc1cc(-c2ccc(-c3ccc(O[C@@H]4C[C@H]5CCC[C@H](N5)[C@@H]4F)nn3)c(O)c2)co1 (single isomer, unassigned) [98-ENT1] | 101 to 500 nM | – | – | 9% | 47% | 1 | 1.13 ×10⁻⁶ cm/s | 1.39 ×10⁻⁶ cm/s
9 | CNC(=O)c1ccc2cc(-c3ccc(O[C@H]4C[C@@H]5CCC[C@@H](N5)[C@H]4F)nn3)c(O)cc2n1 (single isomer, unassigned) [136-ENT1] | 0.01 to 15 nM | – | – | 88% | 101% | 28 | 2.27 ×10⁻⁶ cm/s | 62.3 ×10⁻⁶ cm/s
10 | Oc1cc(-c2cn[nH]c2)ccc1-c1ccc(O[C@@H]2C[C@H]3CCC[C@H](N3)[C@H]2F)nn1 (single isomer, unassigned) [41-ENT2] | 16 to 50 nM | – | – | 66% | 74% | 8 | 4.96 ×10⁻⁶ cm/s | 40.9 ×10⁻⁶ cm/s
11 | Cc1nc(-c2ccc(-c3ccc(O[C@@H]4C[C@H]5CCC[C@H](N5)[C@@H]4F)nn3)c(O)c2)co1 (single isomer, unassigned) [92-ENT1] | 101 to 500 nM | – | – | 65% | 74% | 5 | 5.99 ×10⁻⁶ cm/s | 30.9 ×10⁻⁶ cm/s
12 | Oc1cc(-c2nnco2)c(F)cc1-c1ccc(O[C@@H]2C[C@H]3CCC[C@H](N3)[C@@H]2F)nn1 (single isomer, unassigned) [143-ENT2] | 51 to 100 nM | – | – | 81% | 87% | 8 | 6.91 ×10⁻⁶ cm/s | 54.8 ×10⁻⁶ cm/s
13 | Oc1cc(-c2ccccn2)ccc1-c1ccc(O[C@@H]2C[C@H]3CCC[C@H](N3)[C@@H]2F)nn1 (single isomer, unassigned) [77-ENT1] | 101 to 500 nM | – | – | 52% | 70% | 4 | 5.64 ×10⁻⁶ cm/s | 22.7 ×10⁻⁶ cm/s
14 | Cc1cncc(-c2ccc(-c3ccc(O[C@@H]4C[C@H]5CCC[C@H](N5)[C@@H]4F)nn3)c(O)c2)n1 (single isomer, unassigned) [102-ENT1] | 101 to 500 nM | – | – | 89% | 90% | 6 | 7.66 ×10⁻⁶ cm/s | 43.1 ×10⁻⁶ cm/s
15 | Cc1nc(-c2ccc(-c3ccc(O[C@H]4C[C@@H]5CCC[C@@H](N5)[C@H]4F)nn3)c(O)c2)co1 (single isomer, unassigned) [92-ENT2] | 101 to 500 nM | – | – | 72% | 89% | 9 | 6.04 ×10⁻⁶ cm/s | 54.6 ×10⁻⁶ cm/s
16 | O=c1cc(-c2cc(O)c(-c3ccc(O[C@H]4C[C@@H]5CCC[C@@H](N5)[C@H]4F)nn3)cc2F)cc[nH]1 (single isomer, unassigned) [57-ENT2] | 101 to 500 nM | – | – | 77% | 87% | 90 | 0.35 ×10⁻⁶ cm/s | 31.3 ×10⁻⁶ cm/s
17 | Cn1cc(-c2cc(O)c(-c3ccc(O[C@H]4C[C@@H]5CCC[C@@H](N5)[C@H]4F)nn3)c(F)c2)cn1 (single isomer, unassigned) [118-ENT2] | 101 to 500 nM | – | – | 52% | 80% | 8 | 4.5 ×10⁻⁶ cm/s | 36.8 ×10⁻⁶ cm/s
18 | Cc1cnc(-c2ccc(-c3ccc(O[C@@H]4C[C@H]5CCC[C@H](N5)[C@@H]4F)nn3)c(O)c2)cn1 (single isomer, unassigned) [78-ENT1] | 101 to 500 nM | – | – | 65% | 78% | 3 | 7.17 ×10⁻⁶ cm/s | 24.5 ×10⁻⁶ cm/s
